# Values quoted from earlier work in publication PMC6376154 (International Journal for Parasitology: Drugs and Drug …, 2019).
# Like-named read-outs stand apart in the source and are kept apart here.
# System: P. falciparum 3D7 asexual blood stage
# Settings: cited from earlier work
# [1] = MMV Malaria Box sheet, ref MMV data sheets
# [2] = MMV Malaria Box sheet, ref MMV data sheets, read-out: EC50_nM
# [3] = source GNF, ref ChEMBL_NTD, read-out: CHEMBL EC50
# [4] = ChEMBL-NTD value per source (GNF, GSK, StJude), several values in a cell follow the order of the sources, read-out: CHEMBL EC50
# [5] = MMV Malaria Box data sheet, ref MMV data sheets
# [6] = MMV Malaria Box data sheet, ref MMV data sheets, read-out: EC50_nM
# [7] = source GSK, ref ChEMBL_NTD, read-out: CHEMBL EC50
# [8] = MMV Malaria Box data sheet (supplement mmc2.xls), ref MMV data sheet
# [9] = MMV Malaria Box data sheet (supplement mmc2.xls), ref MMV data sheet, read-out: EC50_nM
# [10] = value(s) per source (GSK, GNF, StJude), separated by semicolon, ref ChEMBL-NTD, read-out: CHEMBL EC50
# [11] = source StJude, ref ChEMBL_NTD, read-out: CHEMBL EC50
structure (smiles),measurement,setting,value
COc1ccc(C(=O)C2CC2c2ccc(Cl)cc2)cc1 (stereo not shown) [MMV665924],percent_inh @ 5 uM,[1],94%
same,EC50,[2],1.06 µM
same,EC50,[3],0.217 µM
O=C(CCl)NCCOc1ccc(Cl)cc1Cl [MMV665927],EC50,[4],0.538 µM
CCC(C)NCC(O)(c1ccc(Cl)cc1)c1ccc(Cl)cc1 (stereo not shown) [MMV665928],percent_inh @ 5 uM,[5],98%
same,EC50,[6],0.642 µM
same,EC50,[3],0.639 µM
same,EC50,[7],0.843 µM
CCCCNCC(O)(c1ccc(Cl)cc1)c1ccc(Cl)cc1 [MMV665929],percent_inh @ 5 uM,[8],97%
same,EC50,[9],0.843 µM
same,EC50,[10],0.72 µM
O=C1c2ccccc2-c2nnc(-c3ccc(Br)cc3)cc21 [MMV665934],percent_inh @ 5 uM,[1],99%
same,EC50,[2],1.07 µM
same,EC50,[3],2.5 µM
FC(F)(F)c1ccc(Nc2nnnc3ccccc23)cc1 [MMV665935],percent_inh @ 5 uM,[8],77%
Cc1ccc(S(=O)(=O)c2c(COC(=O)c3cccc(C)c3)c(-c3ccccc3)nn2C)cc1 [MMV665936],percent_inh @ 5 uM,[1],95%
same,EC50,[3],8.4 µM
O=C(Nc1ccsc1C(=O)NC1CCCCC1)c1ccc(F)cc1 [MMV665939],percent_inh @ 5 uM,[8],86%
same,EC50,[10],1.21 µM
CCOc1ccc(C=Cc2nc(=O)c3ccccc3o2)cc1 [MMV665940],percent_inh @ 5 uM,[5],95%
same,EC50,[6],0.56 µM
same,EC50,[11],0.188 µM
CN(C)c1ccc(C(O)(c2ccc(N(C)C)cc2)c2ccc(N(C)C)cc2)cc1 [MMV665941],percent_inh @ 5 uM,[5],96%
same,EC50,[6],0.255 µM
same,EC50,[11],0.62 µM
Nc1ccc(-c2nc3cc(Cc4ccc5[nH]c(-c6ccc(N)cc6)nc5c4)ccc3[nH]2)cc1 [MMV665943],percent_inh @ 5 uM,[1],100%
same,EC50,[2],1.42 µM
same,EC50,[3],0.243 µM
same,EC50,[7],0.512 µM
same,EC50,[11],1.08 µM
COc1ccc(CN2CCN(Cc3ccccc3)CC2)c(O)c1 [MMV665944],percent_inh @ 5 uM,[1],96%
same,EC50,[2],1.08 µM
same,EC50,[11],1.09 µM
CC(C)=CCN1CCC(C(=O)Nc2ccc(-c3nc4ccccc4[nH]3)cc2)CC1 [MMV665946],percent_inh @ 5 uM,[8],96%
same,EC50,[9],1.16 µM
O=C(Nc1ccccc1O)c1ccc(-c2ccc(Cl)cc2Cl)o1 [MMV665948],percent_inh @ 5 uM,[8],97%
same,EC50,[10],2.46 µM
Oc1ccc(C(=C(Cl)Cl)c2ccc(O)cc2)cc1 [MMV665949],percent_inh @ 5 uM,[1],95%
same,EC50,[11],2.47 µM
O=C(Nc1ccc(F)c(Cl)c1)Nc1ccc(Cl)c(Cl)c1 [MMV665953],percent_inh @ 5 uM,[8],95%
same,EC50,[9],2.06 µM
same,EC50,[10],5.41 µM
O=C(NCC1Cc2cccc(-c3ccncc3)c2O1)c1csc2c1CCCC2 (stereo not shown) [MMV665954],percent_inh @ 5 uM,[8],87%
same,EC50,[9],1.72 µM
same,EC50,[10],8.74 µM
CCN(CC)CCCNc1nc(-c2ccc(Cl)cc2)nc2ccccc12 [MMV665961],percent_inh @ 5 uM,[8],92%
same,EC50,[10],15 µM
COc1cccc(C(=O)NC(c2ccc(C)cc2)c2cc(Cl)c3cccnc3c2O)c1 (stereo not shown) [MMV665969],percent_inh @ 5 uM,[1],97%
same,EC50,[2],0.393 µM
same,EC50,[11],15 µM
CCOC(=O)C1=C(C)N=c2sc(=Cc3cc(Cl)ccc3O)c(=O)n2C1c1ccc(OC)cc1 (stereo not shown) [MMV665971],percent_inh @ 5 uM,[1],97%
same,EC50,[2],0.489 µM
same,EC50,[7],0.746 µM
same,EC50,[11],15 µM
O=C(Cc1ccccc1)NC(c1ccc(Cl)cc1)c1c(O)ccc2ccccc12 (stereo not shown) [MMV665972],EC50,[4],15 µM
CCOC(=O)c1cn(CC)c2cc(N(C)CCc3ccc(OC)c(OC)c3)c(F)cc2c1=O [MMV665977],percent_inh @ 5 uM,[5],99%
same,EC50,[6],0.205 µM
same,EC50,[3],0.103 µM
same,EC50,[7],0.425 µM
FC(F)(F)c1cccc(CNC2CCN(CCc3ccccc3)CC2)c1 [MMV665979],percent_inh @ 5 uM,[5],96%
same,EC50,[6],0.685 µM
same,EC50,[3],0.174 µM
OC1CCCCC1C1(NC(=S)Nc2ccccc2)CCCCC1 (stereo not shown) [MMV665980],percent_inh @ 5 uM,[1],59%
same,EC50,[3],0.211 µM
CCCCCCc1cc(O)c2c3c(c(=O)oc2c1)CCC(C)C3 (stereo not shown) [MMV665987],percent_inh @ 5 uM,[1],96%
same,EC50,[2],0.534 µM
same,EC50,[3],0.364 µM
Cc1nc2ccccc2c(O)c1CC=C(Cl)Cl [MMV665994],percent_inh @ 5 uM,[1],89%
same,EC50,[2],0.836 µM
same,EC50,[3],0.498 µM
CN1c2ccccc2N(C)C1c1ccc2c(c1)OCO2 [MMV666009],percent_inh @ 5 uM,[8],60%
same,EC50,[9],0.994 µM
same,EC50,[10],1.12 µM
Cc1ccc(OCCCCCCNCCO)c(C)c1 [MMV666020],percent_inh @ 5 uM,[1],49%
same,EC50,[3],1.97 µM
Cc1ccc(-c2cc3c(nn2)-c2ccccc2C3=O)cc1 [MMV666021],percent_inh @ 5 uM,[5],99%
same,EC50,[6],0.0944 µM
same,EC50,[3],2 µM
COc1ccc(C(=O)NC(c2ccccc2Cl)c2cc(Cl)c3cccnc3c2O)cc1 (stereo not shown) [MMV666022],EC50,[4],2.37 µM
c1ccc(Cn2c(N=Nc3c(Nc4ccccc4)ccc4ccccc34)nc3ccccc32)cc1 [MMV666023],percent_inh @ 5 uM,[5],96%
same,EC50,[6],0.0368 µM
same,EC50,[3],2.73 µM
OC(Cn1nnc2ccccc21)Cn1c2ccc(Br)cc2c2cc(Br)ccc21 (stereo not shown) [MMV666025],EC50,[4],3.37 µM
COc1ccc(-c2cc3c(nn2)-c2ccccc2C3=O)cc1 [MMV666026],EC50,[4],3.84 µM
COc1ccc(C(=O)NC(c2ccc(Cl)cc2Cl)c2cc(Cl)c3cccnc3c2O)cc1 (stereo not shown) [MMV666054],percent_inh @ 5 uM,[1],96%
same,EC50,[2],0.513 µM
same,EC50,[7],0.499 µM
O=C(Nc1ccc(Cl)cc1C(=O)Nc1ccncc1)c1ccc(Cl)cc1Cl [MMV666057],percent_inh @ 5 uM,[5],94%
same,EC50,[7],0.611 µM
COc1ccc(CN2CCCC(C(=O)c3ccc(C(F)(F)F)cc3)C2)c(O)c1 (stereo not shown) [MMV666060],EC50,[4],0.849 µM
COc1cccc(O)c1CN1CCC2(CCCN(Cc3ccc(F)cc3)C2)C1 (stereo not shown) [MMV666061],percent_inh @ 5 uM,[8],95%
same,EC50,[9],0.53 µM
same,EC50,[10],0.865 µM
Cc1ccc(N2C(=O)C3C(C2=O)C2(c4ccccc4)C(=O)C3(c3ccccc3)C(c3ccccc3)=C2c2ccccc2)cc1 (stereo not shown) [MMV666062],percent_inh @ 5 uM,[5],98%
same,EC50,[6],0.282 µM
same,EC50,[7],0.869 µM
COc1ccc(CNC2CCN(c3ccc(NC(=O)c4cccc(Cl)c4)cc3)CC2)cc1OC [MMV666067],percent_inh @ 5 uM,[8],97%
same,EC50,[9],0.663 µM
same,EC50,[10],1.02 µM
COc1ccc(CCN2CCC(CN(C)Cc3cnn(-c4ccccc4)c3)CC2)cc1 [MMV666069],percent_inh @ 5 uM,[8],96%
same,EC50,[9],1.43 µM
same,EC50,[10],1.16 µM
O=C(NC1CCCC1)c1ccc(N2CCC(NCc3cccc(C(F)(F)F)c3)CC2)cc1 [MMV666070],percent_inh @ 5 uM,[8],93%
same,EC50,[10],1.33 µM
Cc1ccc(CN2CCC(C(=O)Nc3ccc(-c4cc5ccccc5[nH]4)cc3)CC2)o1 [MMV666071],percent_inh @ 5 uM,[8],77%
same,EC50,[10],1.42 µM
COCCNC(=O)c1ccc(OC2CCN(Cc3ccc(F)c(F)c3)CC2)c(Cl)c1 [MMV666072],percent_inh @ 5 uM,[5],91%
same,EC50,[7],1.49 µM
COc1ccc(C2N(C)c3ccccc3N2C)cc1 [MMV666075],percent_inh @ 5 uM,[8],62%
same,EC50,[10],15 µM
Cc1ccc2cc3c(N)c4c(C)ccc(C)c4nc3nc2c1 [MMV666079],percent_inh @ 5 uM,[1],98%
same,EC50,[2],1.31 µM
same,EC50,[3],0.431 µM
O=C(NC(c1ccccc1)c1ccc2cccnc2c1O)c1ccccc1 (stereo not shown) [MMV666080],percent_inh @ 5 uM,[8],95%
same,EC50,[9],1.17 µM
CCCc1c(C)nc2ccccc2c1O [MMV666081],percent_inh @ 5 uM,[8],88%
same,EC50,[10],0.63 µM
CCCC(c1nnnn1C1CCCCC1)N1CCN(C(=O)c2ccco2)CC1 (stereo not shown) [MMV666093],percent_inh @ 5 uM,[8],82%
same,EC50,[10],1.33 µM
CCCc1c(C)nc2ccc(Br)cc2c1O [MMV666095],percent_inh @ 5 uM,[1],64%
same,EC50,[2],1.19 µM
same,EC50,[3],1.51 µM
COc1ccc(C2=C(c3ccc(OC)cc3)C3(c4ccccc4)C(=O)C2(c2ccccc2)C2C(=O)N(c4ccc(C)cc4)C(=O)C23)cc1 (stereo not shown) [MMV666101],percent_inh @ 5 uM,[5],98%
same,EC50,[6],0.148 µM
same,EC50,[3],12.5 µM
CN(C)c1ccc(-c2nc3cc(N)ccc3[nH]2)cc1 [MMV666102],percent_inh @ 5 uM,[8],64%
same,EC50,[10],0.239 µM
